Laboratory results published in ChEMBL document CHEMBL5528035, “Design, Synthesis, and Biological Evaluation for First GPX4 and CDK Dual Inhibitors” (J Med Chem, 2024).
Calls of active or inactive are those of the source. No cut-off for these calls is given here.

How the values were obtained:
HCT-116 [1] = assay: cells; conditions: Homo sapiens, HCT-116, 48 h
Description: Antiproliferative activity against human HCT-116 cells assessed as inhibition of cell growth incubated for 48 hrs by CCK-8 assay

HepG2 = assay: cells; conditions: Homo sapiens, HepG2, 48 h
Description: Antiproliferative activity against human HepG2 cells assessed as inhibition of cell growth incubated for 48 hrs by CCK-8 assay

MDA-MB-231 [2] = assay: cells; conditions: Homo sapiens, MDA-MB-231, 48 h
Description: Antiproliferative activity against human MDA-MB-231 cells assessed as inhibition of cell growth incubated for 48 hrs by CCK-8 assay

[3] = Cmax in Sprague-Dawley rat at 10 mg/kg,iv administration measured upto 24 hrs by LC-MS/MS analysis; type: ADME, organism-based; conditions: in vivo
HCT-116 [4] = assay: Induction of cell cycle arrest in human HCT-116 cells assessed as accumulation of cells at G1 phase at 10 uM incubated for 24 hrs by RNase/PI staining based flow cytometric analysis; type: functional
MDA-MB-231 [5] = assay: Induction of cell cycle arrest in human MDA-MB-231 cells assessed as accumulation of cells at G1 phase at 10 uM incubated for 24 hrs by RNase/PI staining based flow cytometric analysis; type: functional
[6] = biological target: CDK2/Cyclin A2 (Homo sapiens) (UniProt P24941+P20248); assay: Inhibition of CDK2/CyclinA2 (unknown origin) at 100 nM preincubated for 15 mins followed by substrate and ATP addition incubated for 10 mins by ADP-glo luminescent assay relative to control; type: protein-complex assay; conditions: time 25.0 min
MDA-MB-231 [7] = assay: Antitumor activity against human MDA-MB-231 cells xenografted in BALB/c mouse assessed as tumor growth inhibition at 40 mg/kg,ip administrated for 21 consecutive days; type: functional; conditions: read-out: TGI
[8] = Half life in Sprague-Dawley rat at 10 mg/kg,iv administration measured upto 24 hrs by LC-MS/MS analysis; type: ADME, organism-based; conditions: in vivo
[9] = Clearance in Sprague-Dawley rat at 10 mg/kg,iv administration measured upto 24 hrs by LC-MS/MS analysis; type: ADME, organism-based; conditions: in vivo
[10] = biological target: CDK6/cyclin D3 (Homo sapiens) (UniProt P30281+Q00534); assay: Inhibition of CDK6/CyclinD3 (unknown origin) at 100 nM preincubated for 15 mins followed by substrate and ATP addition incubated for 10 mins by ADP-glo luminescent assay relative to control; type: protein-complex assay; conditions: time 25.0 min
[11] = AUC (0 to t) in Sprague-Dawley rat at 10 mg/kg,iv administration measured upto 24 hrs by LC-MS/MS analysis; type: ADME, organism-based; conditions: in vivo
[12] = Tmax in Sprague-Dawley rat at 10 mg/kg,iv administration measured upto 24 hrs by LC-MS/MS analysis; type: ADME, organism-based; conditions: in vivo
[13] = Intrinsic clearance in human liver microsomes in presence of NADPH incubated for 5 to 45 mins by LC/MS analysis; type: ADME, Microsome; conditions: time 5-45 min, read-out: CLH
A549 = assay: cells; conditions: Homo sapiens, A549, 48 h
Description: Antiproliferative activity against human A549 cells assessed as inhibition of cell growth incubated for 48 hrs by CCK-8 assay

MDA-MB-231 [14] = assay: Induction of cell cycle arrest in human MDA-MB-231 cells assessed as accumulation of cells at G2 phase at 10 uM incubated for 24 hrs by RNase/PI staining based flow cytometric analysis; type: functional
[15] = Half life in human liver microsomes in presence of NADPH incubated for 5 to 45 mins by LC/MS analysis; type: ADME, Microsome; conditions: time 5-45 min
[16] = MRT (0 to t) in Sprague-Dawley rat at 10 mg/kg,iv administration measured upto 24 hrs by LC-MS/MS analysis; type: ADME, organism-based; conditions: in vivo
HCT-116 [17] = assay: Induction of cell cycle arrest in human HCT-116 cells assessed as accumulation of cells at G2 phase at 10 uM incubated for 24 hrs by RNase/PI staining based flow cytometric analysis; type: functional

IC50 (HCT-116 [1]): 4.22 µM
IC50 (HepG2): 5.66 µM
IC50 (MDA-MB-231 [2]): 5.16 µM
Cmax [3]: 8730 ng/mL
inhibition [6]: 40.3%
half-life [8]: 3.8 h
clearance [9]: 12.8 mL/min/kg
inhibition [10]: 51.1%
AUC(0-t) at 24 h [11]: 12900 ng·h/mL
Tmax [12]: 0.8 h
CLint scaled [13]: 55.2 mL/min/kg
IC50 (A549): 4.04 µM
half-life [15]: 0.483 h
MRT last at 24 h [16]: 2.7 h
Structure (SMILES): O=C1Nc2ccccc2/C1=C1/Nc2ccccc2/C1=N\O
Activity (HCT-116 [4]): Active
Activity (MDA-MB-231 [5]): Active
inhibition in vivo at 40 mg/kg (MDA-MB-231 [7]): 59.4%
Activity (MDA-MB-231 [14]): Active
Activity (HCT-116 [17]): Active
